Several values for one entry are separate records, joined by “and”; a condition that tells them apart may be missing. Identical values can stand only once.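 A five-concentration, 48-hour dose response in 96-well plates underlies each endpoint, interpolated linearly between surrounding concentrations. GI50 is the concentration that inhibits growth by half. TGI is the concentration that stops growth completely.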
Legend:
Experiment in all cases: NCI-60 cell line screen, 48 h
HS 578T breast = test system: HS 578T breast
SNB-78 CNS = test system: SNB-78 CNS
SF-268 CNS = test system: SF-268 CNS
SR leukemia = test system: SR leukemia
HT29 colon = test system: HT29 colon
DMS 273 small cell lung = test system: DMS 273 small cell lung
HCT-116 colon = test system: HCT-116 colon
MALME-3M melanoma = test system: MALME-3M melanoma
NCI-H226 lung = test system: NCI-H226 lung
SW-620 colon = test system: SW-620 colon
M19-MEL melanoma = test system: M19-MEL melanoma

Structure (SMILES) | TGI (HS 578T breast) [µM] | TGI (SNB-78 CNS) [µM] | TGI (SF-268 CNS) [µM] | TGI (SR leukemia) [µM] | TGI (HT29 colon) [µM] | TGI (DMS 273 small cell lung) [µM] | TGI (HCT-116 colon) [µM] | TGI (MALME-3M melanoma) [µM] | TGI (NCI-H226 lung) [µM] | TGI (SW-620 colon) [µM] | TGI (M19-MEL melanoma) [µM] | GI50 (HS 578T breast) [µM] | GI50 (SF-268 CNS) [µM] | GI50 (HT29 colon) [µM] | GI50 (HCT-116 colon) | GI50 (MALME-3M melanoma) [µM] | GI50 (SW-620 colon) [µM]
N#C/C(=C\c1ccc2[nH]ccc2c1)C(=O)NCCCCNC(=O)/C(C#N)=C/c1ccc2[nH]ccc2c1 | > 10 | > 100 | > 31.6 | > 31.6 | > 31.6 | > 100 | > 31.6 | > 31.6 | > 31.6 | > 31.6 | > 100 | – | – | – | – | – | –
[N-]=[N+]=CC(=O)CCC(N)C(=O)O (stereo not drawn) | > 250 | > 74.4 | 190 | > 231 | 75.7 | > 250 | > 250 | > 250 | > 250 | > 250 | > 138 | 42.2 | 1.65 | 0.727 | 0.457 µM and 0.955 µM | 7.27 | 12.6
COC1(OC)C2(Cl)C3=CCCC=C3C1(Cl)C(Cl)=C2Cl | – | > 100 | > 100 | 53.5 | 84.3 | 39.8 | 43.9 | 49.2 | 82.4 | 36.9 | 47.4 | – | – | – | – | – | –

From PubChem BioAssay (NCI)
